In patent US8440708B2, “Triazole-substituted arylamides as P2X3 and P2X2/3 antagonists” (Roche Palo Alto LLC, priority 2007, dated 2013):

Legend:
[1] = biological target: T1, rat P2X3 receptor (Rattus norvegicus, UniProt P49654); test: P2X3/P2X2/3 FLIPR (Fluorometric Imaging Plate Reader) Assay, P2X3; assay type: cell-based; settings: CHO-K1 cells transfected with rat P2X3; agonist α,β-meATP 1 μM; Table 1; read-out: P2X3 pKi (converted)
T1 construct: expressed in transfected cells; host or cells: CHO-K1
T1 sequence (P49654 1-397): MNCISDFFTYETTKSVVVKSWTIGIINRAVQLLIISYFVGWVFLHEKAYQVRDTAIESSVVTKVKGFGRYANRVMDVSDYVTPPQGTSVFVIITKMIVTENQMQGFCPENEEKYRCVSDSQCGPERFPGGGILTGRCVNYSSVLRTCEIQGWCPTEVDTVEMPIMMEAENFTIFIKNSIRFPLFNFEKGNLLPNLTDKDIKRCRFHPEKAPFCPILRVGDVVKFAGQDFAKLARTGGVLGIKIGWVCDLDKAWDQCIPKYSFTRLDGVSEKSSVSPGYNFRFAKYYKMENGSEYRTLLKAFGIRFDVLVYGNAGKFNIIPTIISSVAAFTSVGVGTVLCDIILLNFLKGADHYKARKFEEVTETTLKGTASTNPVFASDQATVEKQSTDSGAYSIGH
Summary of the method: (§1)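 Compounds were tested as antagonists of agonist-evoked calcium entry in CHO-K1 cells transfected with rat P2X3 or human P2X2/3. After 20 min with compound at room temperature, cells received α,β-meATP at 1 μM (P2X3) or 5 μM (P2X2/3), and peak fluorescence was recorded over 2 min.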

[2] = biological target: T2, human P2X2/3 receptor (Homo sapiens, UniProt P56373+Q9UBL9); test: P2X3/P2X2/3 FLIPR (Fluorometric Imaging Plate Reader) Assay, P2X2/3; assay type: cell-based; settings: CHO-K1 cells transfected with human P2X2/3; agonist α,β-meATP 5 μM; Table 1; read-out: P2X2/3 pKi (converted)
T2 construct: expressed in transfected cells; host or cells: CHO-K1
T2 sequence (Q9UBL9 1-471): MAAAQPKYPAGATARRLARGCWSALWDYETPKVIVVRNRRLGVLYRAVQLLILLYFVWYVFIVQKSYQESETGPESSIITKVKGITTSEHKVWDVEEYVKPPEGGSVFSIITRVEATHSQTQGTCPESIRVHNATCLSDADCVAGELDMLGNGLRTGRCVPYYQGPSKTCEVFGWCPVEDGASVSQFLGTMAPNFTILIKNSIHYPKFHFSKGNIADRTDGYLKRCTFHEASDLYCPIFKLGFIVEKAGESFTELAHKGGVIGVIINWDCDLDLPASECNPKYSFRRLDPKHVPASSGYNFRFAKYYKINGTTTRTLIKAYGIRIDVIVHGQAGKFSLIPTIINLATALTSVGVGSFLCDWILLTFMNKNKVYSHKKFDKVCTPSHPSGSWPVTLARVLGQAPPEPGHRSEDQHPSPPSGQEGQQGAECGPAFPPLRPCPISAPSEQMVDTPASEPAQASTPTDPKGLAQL
T2 sequence (P56373 1-397): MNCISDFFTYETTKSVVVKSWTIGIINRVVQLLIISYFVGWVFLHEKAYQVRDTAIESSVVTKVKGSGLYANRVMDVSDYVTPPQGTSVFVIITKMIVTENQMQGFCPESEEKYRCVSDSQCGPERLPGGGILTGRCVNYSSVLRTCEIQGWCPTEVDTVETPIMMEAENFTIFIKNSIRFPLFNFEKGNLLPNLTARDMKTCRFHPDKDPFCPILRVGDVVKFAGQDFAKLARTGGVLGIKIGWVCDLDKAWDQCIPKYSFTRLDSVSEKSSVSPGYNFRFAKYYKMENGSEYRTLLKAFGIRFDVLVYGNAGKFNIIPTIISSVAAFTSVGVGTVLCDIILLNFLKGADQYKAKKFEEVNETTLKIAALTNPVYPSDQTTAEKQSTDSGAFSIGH
Summary of the method: as §1

SMILES	Ki [1]	Ki [2]
Cc1ccc(-c2cc(C(=O)NCc3cnc(C)cn3)cc(-n3ncnc3C(C)C)c2)cc1 [Compound 136, 5-(5-Isopropyl-[1,2,4]triazol-1-yl)-4′-methyl-biphenyl-3-carboxylic acid (5-methyl-pyrazin-2-ylmethyl)-amide]	5.37 nM	20.9 nM
Cc1ccc(-c2cc(C(=O)NCc3cnc(C)cn3)cc(-c3ncnn3C(C)C)c2)cc1 [Compound 137, 5-(2-Isopropyl-2H-[1,2,4]triazol-3-yl)-4′-methyl-biphenyl-3-carboxylic acid (5-methyl-pyrazin-2-ylmethyl)-amide]	11.5 nM	398 nM
COc1nnc(C(C)C)n1-c1cc(C(=O)NCc2cnc(C)cn2)cc(-c2ccc(C)cc2)c1 [Compound 138, 5-(3-Isopropyl-5-methoxy-[1,2,4]triazol-4-yl)-4′-methyl-biphenyl-3-carboxylic acid (5-methyl-pyrazin-2-ylmethyl)-amide]	724 nM	4170 nM
Cc1ccc(-c2cc(C(=O)NC3CC3)cc(-n3ncnc3C(C)N(C)C)c2)nc1 (stereo not shown) [Compound 139, N-Cyclopropyl-3-[5-(1-dimethylamino-ethyl)-[1,2,4]triazol-1-yl]-5-(5-methyl-pyridin-2-yl)-benzamide]	27.5 nM	1700 nM
Cc1ccc(-c2cc(C(=O)N[C@@H](C)CO)cc(-n3ncnc3C(C)N(C)C)c2)nc1 (stereo partly drawn) [Compound 140, 3-[5-(1-Dimethylamino-ethyl)-[1,2,4]triazol-1-yl]-N-((S)-2-hydroxy-1-methyl-ethyl)-5-(5-methyl-pyridin-2-yl)-benzamide]	20 nM	2750 nM
Cc1ccc(-c2cc(C(=O)NCc3cnc(C)cn3)cc(-n3ncnc3C(C)N(C)C)c2)nc1 (stereo not shown) [Compound 141, 3-[5-(1-Dimethylamino-ethyl)-[1,2,4]triazol-1-yl]-N-(5-methyl-pyrazin-2-ylmethyl)-5-(5-methyl-pyridin-2-yl)-benzamide]	12.3 nM	214 nM
Cc1ccc(-c2cc(C(=O)NC(C)c3cnccn3)cc(-n3ncnc3C(C)N(C)C)c2)nc1 (stereo not shown) [Compound 142, 3-[5-(1-Dimethylamino-ethyl)-[1,2,4]triazol-1-yl]-5-(5-methyl-pyridin-2-yl)-N-(1-pyrazin-2-yl-ethyl)-benzamide]	9.12 nM	229 nM
Cc1ccc(-c2cc(C(=O)NCc3cnc(C)cn3)cc(-n3ncnc3-c3ccccc3)c2)nc1 [Compound 143, N-(5-Methyl-pyrazin-2-ylmethyl)-3-(5-methyl-pyridin-2-yl)-5-(5-phenyl-[1,2,4]triazol-1-yl)-benzamide]	20.9 nM	1120 nM
Cc1ccc(-c2cc(C(=O)N[C@@H](C)CO)cc(-n3ncnc3-c3ccccc3)c2)nc1 [Compound 144, N-((S)-2-Hydroxy-1-methyl-ethyl)-3-(5-methyl-pyridin-2-yl)-5-(5-phenyl-[1,2,4]triazol-1-yl)-benzamide]	182 nM	8910 nM
Cc1ccc(-c2cc(C(=O)NCc3cnc(C)cn3)cc(-n3ncnc3CC(F)F)c2)nc1 [Compound 145, 3-[5-(2,2-Difluoro-ethyl)-[1,2,4]triazol-1-yl]-N-(5-methyl-pyrazin-2-ylmethyl)-5-(5-methyl-pyridin-2-yl)-benzamide]	3.31 nM	107 nM
COCCc1ncnn1-c1cc(C(=O)NCc2cnc(C)cn2)cc(-c2ccc(C)cn2)c1 [Compound 147, 3-[5-(2-Methoxy-ethyl)-[1,2,4]triazol-1-yl]-N-(5-methyl-pyrazin-2-ylmethyl)-5-(5-methyl-pyridin-2-yl)-benzamide]	4.57 nM	2450 nM
COCCc1ncnn1-c1cc(C(=O)N[C@@H](C)CO)cc(-c2ccc(C)cn2)c1 [Compound 148, N-((S)-2-Hydroxy-1-methyl-ethyl)-3-[5-(2-methoxy-ethyl)-1-[1,2,4]triazol-1-yl]-5-(5-methyl-pyridin-2-yl)-benzamide]	60.3 nM	10000 nM
CCOCCc1ncnn1-c1cc(C(=O)NCc2cnc(C)cn2)cc(-c2ccc(C)cn2)c1 [Compound 149, 3-[5-(2-Ethoxy-ethyl)-[1,2,4]triazol-1-yl]-N-(5-methyl-pyrazin-2-ylmethyl)-5-(5-methyl-pyridin-2-yl)-benzamide]	20 nM	7240 nM
CCOCCc1ncnn1-c1cc(C(=O)N[C@@H](C)CO)cc(-c2ccc(C)cn2)c1 [Compound 150, 3-[5-(2-Ethoxy-ethyl)-[1,2,4]triazol-1-yl]-N-((S)-2-hydroxy-1-methyl-ethyl)-5-(5-methyl-pyridin-2-yl)-benzamide]	158 nM	10000 nM
Cc1ccc(-c2cc(C(=O)NCc3cnc(C)cn3)cc(-n3ncnc3C3CNC3)c2)nc1 [Compound 151, 3-(5-Azetidin-3-yl-[1,2,4]triazol-1-yl)-N-(5-methyl-pyrazin-2-ylmethyl)-5-(5-methyl-pyridine-2-yl)-benzamide]	676 nM	7240 nM
Cc1ccc(-c2cc(C(=O)NCc3ccc(C)nn3)cc(-n3ncnc3C3CCC3)c2)nc1 [Compound 152, 3-(5-Cyclobutyl-[1,2,4]triazol-1-yl)-N-(6-methyl-pyridazin-3-ylmethyl)-5-(5-methyl-pyridin-2-yl)-benzamide]	5.75 nM	23.4 nM
Cc1ccc(-c2cc(C(=O)NCc3ccc(=O)n(C)c3)cc(-n3ncnc3C(C)C)c2)nc1 [Compound 153, 3-(5-Isopropyl-[1,2,4]triazol-1-yl)-N-(1-methyl-6-oxo-1,6-dihydro-pyridin-3-ylmethyl)-5-(5-methyl-pyridin-2-yl)-benzamide]	26.9 nM	4370 nM
COCCc1nc(C)nn1-c1cc(C(=O)N[C@@H](C)CO)cc(-c2ccc(C)cn2)c1 [Compound 155, N-((S)-2-Hydroxy-1-methyl-ethyl)-3-[5-(2-methoxy-ethyl)-3-methyl-[1,2,4]triazol-1-yl]-5-(5-methyl-pyridin-2-yl)-benzamide]	3310 nM	10000 nM
Cc1ccc(-c2cc(C(=O)NCc3cnc(C)cn3)cc(-n3ncnc3CC(C)(C)O)c2)nc1 [Compound 156, 3-[5-(2-Hydroxy-2-methyl-propyl)-[1,2,4]triazol-1-yl]-N-(5-methyl-pyrazin-2-ylmethyl)-5-(5-methyl-pyridin-2-yl)-benzamide]	123 nM	10000 nM
Cc1ccc(-c2cc(C(=O)NCc3cnc(C)cn3)cc(-n3ncnc3C3CN(C)C3)c2)nc1 [Compound 157, 3-[5-(1-Methyl-azetidin-3-yl)-[1,2,4]triazol-1-yl]-N-(5-methyl-pyrazin-2-ylmethyl)-5-(5-methyl-pyridin-2-yl)-benzamide]	676 nM	10000 nM
Cc1cnc(CNC(=O)c2cc(-c3ccc(Cl)cn3)cc(-n3ncnc3C(C)N(C)C)c2)cn1 (stereo not shown) [Compound 158, 3-(5-Chloro-pyridin-2-yl)-5-[5-(1-dimethylamino-ethyl)-[1,2,4]triazol-1-yl]-N-(5-methyl-pyrazin-2-ylmethyl)-benzamide]	37.2 nM	851 nM
Cc1ccc(-c2cc(C(=O)NCc3ccn(C)c(=O)c3)cc(-n3ncnc3C(C)C)c2)nc1 [Compound 159, 3-(5-Isopropyl-[1,2,4]triazol-1-yl)-N-(1-methyl-2-oxo-1,2-dihydro-pyridin-4-ylmethyl)-5-(5-methyl-pyridin-2-yl)-benzamide]	2.95 nM	26.3 nM
Cc1ccc(-c2cc(C(=O)NCc3cnc(C)cn3)cc(-n3ncnc3C(F)(F)F)c2F)nc1 [Compound 164, 4-Fluoro-N-(5-methyl-pyrazin-2-ylmethyl)-3-(5-methyl-pyridin-2-yl)-5-(5-trifluoromethyl-[1,2,4]triazol-1-yl)-benzamide]	11.5 nM	302 nM
